pKi: −log10 of the molar value.

The target of one assay is T1, 5-HT2 receptor (Rattus norvegicus, UniProt P14842).
T1 construct: Cerebral cortices were homogenized in 10 volumes of ice cold 0.32M sucrose; from tissue; host or cells: cerebral cortex of male Sprague Dawley rats, membranes
Nature of the assay: 5-HT2 receptor binding ([3H]-Ketanserine displacement, rat cerebral cortices). More on the design: species or system rat (male Sprague Dawley). The conditions noted are these: 37° C. for 10 min, read-out: AFFINITY FOR 5-HT2 RECEPTORS Ki. On the procedure: Receptor binding studies on 5-HT1A and 5-HT2 receptors were carried out to determine the affinity of the test compounds.
Rats (male Sprague Dawley, 200-250 g) were used. Cerebral cortices were homogenized in 10 volumes of ice cold 0.32M sucrose. After the centrifugation of the homogenate (1,000×g for 10 min) the supernatant was then recentrifuged at 48,000×g for 15 min. The resulting pellet was resuspended in 10 volumes of 50 mM TRIS buffer (pH 7.4), incubated at 37° C. for 10 min and recentrifuged at 48,000×g for 15 min. The residue was then resuspended in 10 volumes of 50 mM TRIS buffer (pH 7.4).
The tissue was diluted 1:100 (w:v) in 50 mM TRIS buffer (pH 7.4) to have a final protein concentration of about 200 μg/mL.
Displacement experiments were performed by incubating the homogenate (980 μL) in the presence of [^3 H]-Ketanserine (0.5-1.0 nM) (10 μL) and of different concentrations of the test compounds dissolved in the assay buffer (10 μL), at 37° C. for 10 min (final volume: 1 mL).
Non specific binding was determined in the presence of 100 μM Methysergide (10 μL). The separation of [^3 H]-Ketanserine free from that bound to the receptor was carried by the filtration technique (GF/B filters, Whatman). The radioactivity present was counted by liquid scintillation spectrometry.
The affinity values (Ki) for the compounds were obtained by non linear least squares regression analysis on the basis of a one binding site model. These values were corrected on the basis of the radioligand occupancy on the receptors according to the equation: Ki=IC50 /(1+[C]/KD), where [C] and KD represent the concentration and the dissociation constant, respectively, of the radioligand used ([^3 H]-Ketanserine).
The results of some of the compounds of the present invention on the affinity to the 5-HT1A and 5-HT2 receptors are reported in Table 1.

A further assay concerns 5-HT1A receptors. As to the kind of experiment: Behavioral syndrome: induction of 5-HT1A related syndrome. It is filed as in vivo, rat. Also on record: key: sum of symptom scores per rat within 50 min. The conditions noted are these: within 50 min, mean ± s.e. from 4 rats. The method, then:
The test consists of administering the compound and registering the presence of the above mentioned symptoms within 50 min giving them a score. The results are expressed as the sum of said scores for each rat (Tab. 2).
Values represent mean± s.e. from 4 rats

The next assay has as its target T2, 5-HT1A receptor (Rattus norvegicus, UniProt P19327).
T2 construct: The Hippocampi of these animals were homogenized in 10 volumes of ice cold TRIS buffer; from tissue; host or cells: hippocampus of male Sprague Dawley rats, homogenate
T2 sequence (P19327 1-422): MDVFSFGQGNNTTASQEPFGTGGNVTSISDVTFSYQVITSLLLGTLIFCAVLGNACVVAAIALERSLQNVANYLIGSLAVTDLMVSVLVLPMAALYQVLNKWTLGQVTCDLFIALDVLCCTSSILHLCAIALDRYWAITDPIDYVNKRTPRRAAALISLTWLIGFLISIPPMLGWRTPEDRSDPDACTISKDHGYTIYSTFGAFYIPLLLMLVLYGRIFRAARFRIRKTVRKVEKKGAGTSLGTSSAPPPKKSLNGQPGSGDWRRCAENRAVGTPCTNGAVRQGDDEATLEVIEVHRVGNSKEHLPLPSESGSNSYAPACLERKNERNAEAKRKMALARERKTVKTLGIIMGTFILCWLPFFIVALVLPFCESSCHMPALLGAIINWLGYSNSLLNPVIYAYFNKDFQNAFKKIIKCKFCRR
Nature of the assay: 5-HT1A receptor binding ([3H]-8-OH-DPAT displacement, rat hippocampi). Also on record: species or system rat (male Sprague Dawley). The conditions noted are these: 30° C. for 15 min, read-out: AFFINITY FOR 5-HT1A RECEPTORS Ki. The method, then: Rats (male Sprague Dawley, 200-250 g) were used. The Hippocampi of these animals were homogenized in 10 volumes of ice cold TRIS buffer (pH 7.4). The homogenate was diluted 1:400 (w:v) in the same buffer to have a final protein concentration of about 200 μg/mL, filtered and incubated at 37° C. for 10 min, before use.
Displacement experiments were performed by incubating the homogenate (980 μL) in the presence of [^3 H]-80H-DPAT (1.0-1,5 nM) (10 μL) and of different concentrations of the test compounds dissolved in the test buffer (10 μL), at 30° C. for 15 min (final volume: 1 mL).
Non specific binding was determined in the presence of 100 μM 5-HT (10 μL). The separation of [^3 H]-8-OH-DPAT, free from that bound to the receptor, was carried out by the filtration technique (GF/B filters, Whatman). The radioactivity present was counted by liquid scintillation spectrometry.
The affinity values (Ki) for the compounds were obtained by a non linear least squares regression analysis on the basis of a one binding site model. The values were corrected on the basis of the radioligand occupancy on the receptors according to the equation: Ki=IC50 /(1+[C]/KD),where [C] and KD represent the concentration and the dissociation constant, respectively, of the radioligand used ([^3 H]-8-OH-DPAT).

The subject of a further assay is 5-HT2 receptors. Nature of the assay: Antagonism of quipazine-induced head twitches. It is filed as in vivo. Particulars: ip; head twitches scored within 20 minutes in quipazine-treated animals.

T1 sequence (P14842 whole entry): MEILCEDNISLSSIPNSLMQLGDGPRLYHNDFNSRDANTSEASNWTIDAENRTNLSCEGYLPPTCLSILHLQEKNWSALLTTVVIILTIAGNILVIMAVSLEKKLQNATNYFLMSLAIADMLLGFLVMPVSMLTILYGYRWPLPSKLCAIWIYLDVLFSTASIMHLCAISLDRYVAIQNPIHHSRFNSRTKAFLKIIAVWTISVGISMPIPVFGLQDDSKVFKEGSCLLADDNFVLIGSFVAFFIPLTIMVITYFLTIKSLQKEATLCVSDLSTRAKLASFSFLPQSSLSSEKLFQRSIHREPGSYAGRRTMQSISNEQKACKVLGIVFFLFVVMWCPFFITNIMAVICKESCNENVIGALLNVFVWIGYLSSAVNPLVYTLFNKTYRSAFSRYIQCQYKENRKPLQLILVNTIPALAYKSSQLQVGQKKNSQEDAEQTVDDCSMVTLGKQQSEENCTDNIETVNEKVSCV

One may read the pKi as the Ki on a negative log10 scale, so that one unit is a factor of ten. As for `Cn1c(=O)n(CCCCN2CCN(c3cccc(C(F)(F)F)c3)CC2)c2ccccc21` [Compound 9, 1-[4-(4-(3-trifluoromethyl-phenyl)piperazin-1-yl)butyl]-3-methyl-2,3-dihydro-1H-benzimidazol-2-one], the pKi is 7.85 at 5-HT2 receptor and 7.64 at 5-HT1A receptor. Also, the “INDUCTION OF 5-HT1A RELATED SYNDROME Total score” value with 5-HT1A receptors (dose 8 mg/kg/ip) is on record as 2.0 ± 0.6. Also, in the assay on 5-HT2 receptors, the “DOSE OF COMPOUND (ID50) WHICH ANTAGONIZES THE SYNDROME INDUCED BY QUIPAZINE” value (shortened to “DOSE OF COMPOUND”) was 1720 μg/kg/ip.
The like results for `COc1ccc2[nH]c(=O)n(CCCCN3CCN(c4cccc(C(F)(F)F)c4)CC3)c2c1` [Compound 25, 6-methoxy-1-[4-(4-(3-trifluoromethyl-phenyl)piperazin-1-yl)butyl]-2,3-dihydro-1H-benzimidazol-2-one] were, in that order, 7.60, 7.00, 2.0 ± 1.2 and 1420 μg/kg/ip.
The matching figures for `COc1ccc2[nH]c(=O)n(CCCCN3CCN(c4ccccc4OC)CC3)c2c1` [Compound 24, 6-methoxy-1-[4-(4-(2-methoxyphenyl)piperazin-1-yl)butyl]-2,3-dihydro-1H-benzimidazol-2-one]: 7.19, 7.92, 4.3 ± 1.1 and 102 μg/kg/ip.
As for `O=c1[nH]c2ccccc2n1CCN1CCN(c2cccc(C(F)(F)F)c2)CC1` [Compound 3, 1-[2-(4-(3-trifluoromethyl-phenyl)piperazin-1-yl)ethyl]-2,3-dihydro-1H-benzimidazol-2-one], the pKi on 5-HT2 receptor is 6.88; at 5-HT1A receptor, 7.30. Besides, the “INDUCTION OF 5-HT1A RELATED SYNDROME Total score” value with 5-HT1A receptors (dose 16 mg/kg/ip) is 5.3 ± 1.2. Further, the “DOSE OF COMPOUND” value in the assay with 5-HT2 receptors is on record as 498 μg/kg/ip.
On to `Cn1c(=O)n(CCCCN2CCN(c3cccc(Cl)c3)CC2)c2ccccc21` [Compound 17, 1-[4-(4-(3-chlorophenyl)piperazin-1-yl)butyl]-3-methyl-2,3-dihydro-1H-benzimidazol-2-one], for which the figures for the pKi on 5-HT2 receptor and on 5-HT1A receptor were 8.10 and 7.52, respectively. For the same compound, the “INDUCTION OF 5-HT1A RELATED SYNDROME Total score” value stood at 1.5 ± 0.7 in the assay with 5-HT1A receptors (dose 8 mg/kg/ip) and 10.3 ± 2.9 in the assay with 5-HT1A receptors (dose 32 mg/kg/ip). Moreover, in the assay with 5-HT2 receptors, the “DOSE OF COMPOUND” value was determined as 178 μg/kg/ip.
Turning to `O=c1[nH]c2ccccc2n1CCCCN1CCN(c2cccc(C(F)(F)F)c2)CC1` [Compound 8, 1-[4-(4-(3-trifluoromethyl-phenyl)piperazin-1-yl)butyl]-2,3-dihydro-1H -benzimidazol-2-one], the values for the pKi at 5-HT2 receptor and on 5-HT1A receptor were 8.02 and 7.28, respectively. Besides, in the assay with 5-HT1A receptors (dose 8 mg/kg/ip), the “INDUCTION OF 5-HT1A RELATED SYNDROME Total score” value is given as 3.0 ± 2.7. Also, the “DOSE OF COMPOUND” value with 5-HT2 receptors is 385 μg/kg/ip.
`COc1ccccc1N1CCN(CCCn2c(=O)[nH]c3ccccc32)CC1` [Compound 10, 1-[3-(4-(2-methoxyphenyl)piperazin-1-yl)propyl]-2,3-dihydro-1H-benzimidazol-2-one]: the pKi at 5-HT2 receptor was 7.52; at 5-HT1A receptor it was 8.30. In addition, the “INDUCTION OF 5-HT1A RELATED SYNDROME Total score” value with 5-HT1A receptors (dose 8 mg/kg/ip) was found to be 3.0 ± 0.4. In addition, the “DOSE OF COMPOUND” value with 5-HT2 receptors worked out at 3300 μg/kg/ip.
For the compound `COc1ccccc1N1CCN(CCCCn2c(=O)[nH]c3ccccc32)CC1` [Compound 1, 1-[4-(4-(2-methoxy-phenyl)piperazin-1-yl)butyl]-2,3-dihydro-1H-benzimidazol-2-one], the pKi on 5-HT2 receptor was 7.44; at 5-HT1A receptor, 7.89. In the assay on 5-HT1A receptors (dose 8 mg/kg/ip), the “INDUCTION OF 5-HT1A RELATED SYNDROME Total score” value amounted to 7.3 ± 0.9. Moreover, the “DOSE OF COMPOUND” value in the assay on 5-HT2 receptors is listed as 720 μg/kg/ip.
As to `O=c1[nH]c2ccccc2n1CCCCN1CCN(c2cccc3ccccc23)CC1` [Compound 30, 1-[4-(4-(1-naphtyl)piperazin-1-yl)butyl]-2,3-dihydro-1H-benzimidazol-2-one], the pKi at 5-HT2 receptor is 8.15; on 5-HT1A receptor it was 8.00.
Regarding `CC(C)n1c(=O)n(CCCCN2CCN(c3cccc(C(F)(F)F)c3)CC2)c2ccccc21` [Compound 15, 1-[4-(4-(3-trifluoromethyl-phenyl)piperazin-1-yl)butyl]-3-isopropyl-2,3-dihydro-1H-benzimidazol-2-one], the pKi on 5-HT2 receptor is 7.70; on 5-HT1A receptor, 7.10.
As to `CCn1c(=O)n(CCCCCCN2CCN(c3cccc(C(F)(F)F)c3)CC2)c2ccccc21` [Compound 13, 1-[6-(4-(3-trifluoromethyl-phenyl)piperazin-1-yl)hexyl]-3-ethyl-2,3-dihydro-1H-benzimidazol-2-one], the pKi on 5-HT2 receptor and at 5-HT1A receptor was 7.82 in each case. Further, in the assay on 5-HT1A receptors (dose 32 mg/kg/ip), the “INDUCTION OF 5-HT1A RELATED SYNDROME Total score” value stood at 3.8 ± 1.3. Further, the “DOSE OF COMPOUND” value with 5-HT2 receptors amounted to 8200 μg/kg/ip.
As to `O=c1[nH]c2ccccc2n1CCCN1CCN(c2cccc(C(F)(F)F)c2)CC1` [Compound 18, 1-[3-(4-(3-trifluoromethyl-phenyl)piperazin-1-yl)propyl]-2,3-dihydro-1H-benzimidazol-2-one], the figures for the pKi on 5-HT2 receptor and on 5-HT1A receptor were 8.40 and 7.60, respectively. In addition, the “INDUCTION OF 5-HT1A RELATED SYNDROME Total score” value came to 3.8 ± 2.2 in the assay on 5-HT1A receptors (dose 16 mg/kg/ip) and 12.0 ± 3.2 in the assay on 5-HT1A receptors (dose 32 mg/kg/ip). Further, the “DOSE OF COMPOUND” value with 5-HT2 receptors is listed as 170 μg/kg/ip.
Consider `O=c1[nH]c2ccccc2n1CCCCN1CCN(c2cccc(Cl)c2)CC1` [Compound 4, 1-[4-(4-(3-chlorophenyl)piperazin-1-yl)butyl]-2,3-dihydro-1H-benzimidazol-2-one], for which the figures for the pKi at 5-HT2 receptor and on 5-HT1A receptor were 8.85 and 7.13, respectively. The entries for the “INDUCTION OF 5-HT1A RELATED SYNDROME Total score” value in the assay with 5-HT1A receptors (dose 8 mg/kg/ip) and with 5-HT1A receptors (dose 16 mg/kg/ip) were 0.8 ± 0.5 and 3.3 ± 1.0, respectively. In addition, the “DOSE OF COMPOUND” value in the assay with 5-HT2 receptors is given as 250 μg/kg/ip.

The values above are taken from US5576318A, “Benzimidazolone derivatives” (Boehringer Ingelheim Italia S.p.A., priority 1991, dated 1996).
